# Assays:
# Assay type in all cases: cell-based, human
# MYC = test: Western blot of MYC in C4-2 cells; conditions: control and SPOP-F133V C4-2 cells, JQ1 1 μM 24 hours
# Experimental: (§1) Cell lysates or immunoprecipitates were subjected to SDS-PAGE, and proteins were transferred to nitrocellulose membranes (GE Healthcare Sciences). The membranes were blocked in Tris-buffered saline (TBS, pH 7.4) containing 5% non-fat milk and 0.1% Tween-20, washed twice in TBS containing 0.1% Tween-20, and incubated with primary antibody overnight at 4° C., followed by secondary antibody for 1 hour at room temperature. The proteins of interest were visualized using ECL chemiluminescence system (Santa Cruz Biotechnology). Densitometry analysis of protein bands was analyzed on the Gel-Pro Analyzer software.
# AR = test: Western blot of AR, RT-qPCR of AR target genes and AR ChIP-qPCR in C4-2 cells; conditions: control and SPOP-F133V C4-2 cells, JQ1 1 μM 24 hours
# Experimental: as §1
# Total RNA was isolated from transiently transfected cells using the Trizol reagent (Thermo Fisher Scientific), and cDNA was reverse-transcribed using the Superscript RT kit (TOYOBO, Japan) according to the manufacturer's instructions. PCR amplification was performed using the SYBR Green PCR master mix Kit (TOYOBO, Japan). All quantization was normalized to the level of endogenous control GAPDH. […]
# AKT-mTORC1 pathway = test: Western blot of AKT and S6K phosphorylation in C4-2 cells; conditions: cells expressing mutant SPOP (SPOP-F133V)
# Experimental: as §1
# [1] = system: SPOP-BRD2/3/4 protein interaction; test: Co-immunoprecipitation of SPOP with BRD2/3/4 in 293T cells; conditions: JQ1 1 μM for 24 hours
# Experimental: To immunoprecipitate the ectopically expressed FLAG-tagged proteins, transfected cells were lysed 24 hours post-transfection in BC100 buffer. The whole-cell lysates were immunoprecipitated with the monoclonal anti-FLAG antibody-conjugated M2 agarose beads (Sigma-Aldrich) at 4° C. overnight. After three washes with lysis buffer, followed by two washes with BC100 buffer, the bound proteins were eluted using FLAG-Peptide (Sigma-Aldrich) prepared in BC100 for 3 hours at 4° C. The eluted protein sample was resolved by SDS-PAGE. To immunoprecipitate the endogenous proteins, cells were lysed with 1× cell lysis buffer (Cell Signaling Technology), and the lysate was centrifuged. The supernatant was precleared with protein A/G beads (Sigma-Aldrich) and incubated with the indicated antibody and protein A/G beads at 4° C. overnight. Beads were washed five times with lysis buffer and resuspended in sample buffer and analyzed by SDS-PAGE.
smiles,measurement,setting,value
Cc1sc2c(c1C)C(c1ccc(Cl)cc1)=N[C@@H](CC(=O)OC(C)(C)C)c1nnc(C)n1-2 [JQ1],MYC protein expression,MYC,markedly decreased
same,AR protein level,AR,largely decreased
same,AR transcriptional activity,AR,largely decreased
same,JQ1-induced inhibition of phosphorylation of AKT-mTORC1 pathway proteins,AKT-mTORC1 pathway,largely impedes
same,SPOP-BRD2/3/4 protein interaction,[1],diminished

# Source: US11712439B2, “Methods and materials for identifying and treating bet inhibitor-resistant cancers” (Mayo Foundation for Medical Education and Research, priority 2017, dated 2023)
